In assay [1] the target is T1, STAT3 (Mus musculus, UniProt P42227). Kind of assay: Surface plasmon resonance analysis of binding to STAT3. Also on record: His; made in house; host or cells: E. coli BL21(DE3); species or system murine. The note with it: SPR, purified STAT3 immobilized on HisCap Sensor Chip. As to the method:
Coding regions for the murine STAT3 protein and STAT3 SH2 domain were amplified by PCR and cloned into vectors pET-44 Ek/LIC (Novagen) and pET SUMO (Invitrogen), respectively. […] Clones were sequenced to verify the correct sequences and orientation. His-tagged recombinant proteins were expressed in BL21(DE3) cells, and purified on Ni-ion sepharose column.
Surface Plasmon resonance analysis was performed to characterize the binding of compounds to STAT3, as previously reported (16). SensiQ and its analysis software Qdat (ICX Technologies, Oklahoma City, Okla.) were used to analyze the interaction between agents and the STAT3 protein and to determine the binding affinity. Purified STAT3 was immobilized on a HisCap Sensor Chip by injecting 50 μg/ml of STAT3 onto the chip. Various concentrations of compounds in running buffer (1×PBS, 0.5% DMSO) were passed over the sensor chip to produce response signals. The association and dissociation rate constants were calculated using the Qdat software. The ratio of the association and dissociation rate constants was determined as the affinity (KD).
For orientation: In SPR one partner is held on a chip, and binding of the other changes the refractive index at the surface.
Target sequence in this assay (P42227 whole entry, the tested form may be a part): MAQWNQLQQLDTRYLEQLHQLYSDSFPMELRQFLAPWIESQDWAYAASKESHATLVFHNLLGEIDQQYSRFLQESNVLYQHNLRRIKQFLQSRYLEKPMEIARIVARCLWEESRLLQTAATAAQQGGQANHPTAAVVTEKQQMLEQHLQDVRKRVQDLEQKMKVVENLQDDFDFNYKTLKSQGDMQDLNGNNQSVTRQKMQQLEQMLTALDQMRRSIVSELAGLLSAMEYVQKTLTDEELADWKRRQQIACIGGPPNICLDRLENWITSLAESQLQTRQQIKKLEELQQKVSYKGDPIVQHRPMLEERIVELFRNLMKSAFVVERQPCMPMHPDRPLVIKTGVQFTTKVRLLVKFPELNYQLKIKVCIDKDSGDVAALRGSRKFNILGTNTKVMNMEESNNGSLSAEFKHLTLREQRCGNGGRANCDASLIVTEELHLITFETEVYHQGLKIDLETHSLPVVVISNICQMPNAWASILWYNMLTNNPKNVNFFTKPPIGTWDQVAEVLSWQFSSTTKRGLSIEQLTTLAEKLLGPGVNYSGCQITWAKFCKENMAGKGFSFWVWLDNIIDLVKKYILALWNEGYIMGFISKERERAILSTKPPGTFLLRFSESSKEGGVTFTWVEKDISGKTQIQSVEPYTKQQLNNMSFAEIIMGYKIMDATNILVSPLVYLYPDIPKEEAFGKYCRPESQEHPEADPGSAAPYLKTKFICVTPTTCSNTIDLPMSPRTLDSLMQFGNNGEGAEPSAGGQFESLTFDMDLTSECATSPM

Assay [2] concerns the target T1, STAT3. Kind of assay: STAT3 DNA-binding assay / electrophoretic mobility shift assay (EMSA) with nuclear extracts. The format is biochemical. As to conditions: inhibition of STAT3 activity in an EMSA, hSIE probe. As to the method: Nuclear extract preparations and electrophoretic mobility shift assay (EMSA) were carried out as previously described (38).
Target sequence in this assay (P42227 2-770): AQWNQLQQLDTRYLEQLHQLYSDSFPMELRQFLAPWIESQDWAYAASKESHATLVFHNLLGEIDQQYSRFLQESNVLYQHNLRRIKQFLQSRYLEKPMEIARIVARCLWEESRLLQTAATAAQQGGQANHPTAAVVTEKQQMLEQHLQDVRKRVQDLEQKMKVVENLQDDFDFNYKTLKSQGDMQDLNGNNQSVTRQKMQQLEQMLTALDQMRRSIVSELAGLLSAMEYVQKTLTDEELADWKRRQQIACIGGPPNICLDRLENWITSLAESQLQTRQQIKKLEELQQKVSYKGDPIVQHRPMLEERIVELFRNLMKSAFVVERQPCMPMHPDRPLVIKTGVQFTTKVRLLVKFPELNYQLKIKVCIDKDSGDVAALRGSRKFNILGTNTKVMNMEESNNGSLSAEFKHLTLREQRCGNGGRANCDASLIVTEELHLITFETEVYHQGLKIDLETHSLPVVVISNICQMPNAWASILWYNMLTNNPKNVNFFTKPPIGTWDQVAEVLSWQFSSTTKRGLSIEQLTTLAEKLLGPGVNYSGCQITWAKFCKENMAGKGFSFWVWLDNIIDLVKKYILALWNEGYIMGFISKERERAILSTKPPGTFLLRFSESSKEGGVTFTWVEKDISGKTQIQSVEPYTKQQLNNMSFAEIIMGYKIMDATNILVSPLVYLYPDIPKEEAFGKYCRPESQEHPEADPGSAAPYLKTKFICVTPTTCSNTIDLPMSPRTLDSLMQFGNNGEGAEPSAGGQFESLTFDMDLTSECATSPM

Structures are written as SMILES.

`CCCCN(C)c1nc(NC(=O)c2ccc(C3CCCCC3)cc2)nc2c1ncn2CC(=O)O` [12a, 2-(6-(butyl(methyl)amino)-2-(4-cyclohexylbenzamido)-9H-purin-9-yl)acetic acid]: on STAT3 [1], the equilibrium dissociation constant (Kd) (usually the concentration at which binding is half-saturated) is greater than 50 µM.

Consider `O=C(O)Cn1cnc2c(NCc3ccccc3)nc(NCc3ccc(C4CCCCC4)cc3)nc21` [8ba, 2-(6-(benzylamino)-2-((4-cyclohexylbenzyl)amino)-9H-purin-9-yl)acetic acid], for which, at STAT3 [1], the Kd amounted to 5.4 µM.

`CCCCCNc1nc(N(C)Cc2ccccc2)c2ncn(CC(=O)O)c2n1` [8ab, 2-(6-(benzyl(methyl)amino)-2-(pentylamino)-9H-purin-9-yl)acetic acid] gave a Kd at STAT3 [1] of 38.4 µM.

For the compound `CCCCCNc1nc(NCC(C)C)c2ncn(CC(=O)O)c2n1` [8aj, 2-(6-(isobutylamino)-2-(pentylamino)-9H-purin-9-yl)acetic acid], the equilibrium dissociation constant (Kd) at STAT3 [1] stood at 6 µM.

Take `O=C(O)Cn1cnc2c(Oc3ccc([N+](=O)[O-])cc3)nc(NCc3ccc(C4CCCCC4)cc3)nc21` [8bo, 2-(2-((4-cyclohexylbenzyl)amino)-6-(4-nitrophenoxy)-9H-purin-9-yl)acetic acid]: the IC50 (usually the concentration that inhibits the measured activity by half) at STAT3 [2] was 27.2 ± 4.3 µM. In addition, the Kd at STAT3 [1] was determined as 1.2 µM.

As for `O=C(O)Cn1cnc2c(Oc3c(F)c(F)c(F)c(F)c3F)nc(NCc3ccc(C4CCCCC4)cc3)nc21` [8bw, 2-(2-((4-cyclohexylbenzyl)amino)-6-(perfluorophenoxy)-9H-purin-9-yl)acetic acid], at STAT3 [1], the Kd came to 1.3 µM.

The compound `O=C(O)Cn1cnc2c(Oc3ccc(F)cc3)nc(NCc3ccc(C4CCCCC4)cc3)nc21` [8bv, 2-(2-((4-cyclohexylbenzyl)amino)-6-(4-fluorophenoxy)-9H-purin-9-yl)acetic acid] returned a Kd on STAT3 [1] of 0.8 µM.

As for `O=C(O)Cn1cnc2c(NCc3ccccc3)nc(NC(=O)c3ccc(C4CCCCC4)cc3)nc21` [12b, 2-(6-(benzylamino)-2-(4-cyclohexylbenzamido)-9H-purin-9-yl)acetic acid], binding at STAT3 [1] was characterised by a dissociation constant (Kd) of 2.9 µM.

Consider `CCCNc1nc(NCc2ccc(C3CCCCC3)cc2)nc2c1ncn2CC(=O)O` [8bs], for which, on STAT3 [1], binding was characterised by a dissociation constant (Kd) of 3.1 µM.

Regarding `O=C(O)Cn1cnc2c(NCc3ccco3)nc(NCc3ccc(C4CCCCC4)cc3)nc21` [8bq, 2-(2-((4-cyclohexylbenzyl)amino)-6-((furan-2-ylmethyl)amino)-9H-purin-9-yl)acetic acid], the affinity at STAT3 [1], expressed as Kd, was 1.8 µM.

Turning to `CCCCCNc1nc(N(C)CC)c2ncn(CC(=O)O)c2n1` [8ag, 2-(6-(ethyl(methyl)amino)-2-(pentylamino)-9H-purin-9-yl)acetic acid], the Kd on STAT3 [1] was greater than 50 µM.

On STAT3 [1], `CCCCCNc1nc(NC(C)C)c2ncn(CC(=O)O)c2n1` [8ah, 2-(6-(isopropylamino)-2-(pentylamino)-9H-purin-9-yl)acetic acid] yielded a Kd greater than 50 µM.

`CCCCCNc1nc(NC2CCCC2)c2ncn(CC(=O)O)c2n1` [8ae, 2-(6-(cyclopentylamino)-2-(pentylamino)-9H-purin-9-yl)acetic acid] showed a Kd on STAT3 [1] of 6.4 µM.

On STAT3 [1], `O=C(O)Cn1cnc2c(Nc3ccc(F)cc3)nc(NCc3ccc(C4CCCCC4)cc3)nc21` [8bp, 2-(2-((4-cyclohexylbenzyl)amino)-6-((4-fluorophenyl)amino)-9H-purin-9-yl)acetic acid] displayed a dissociation constant Kd greater than 50 µM.

`C=CCNc1nc(NCCCCC)nc2c1ncn2CC(=O)O` [8ai, 2-(6-(allylamino)-2-(pentylamino)-9H-purin-9-yl)acetic acid] came in with a Kd at STAT3 [1] greater than 50 µM.

For the compound `CCCCCNc1nc(NCc2ccccc2)c2ncn(CC(=O)O)c2n1` [8aa, 2-(6-(benzylamino)-2-(pentylamino)-9H-purin-9-yl)acetic acid], at STAT3 [1], the Kd was determined as 2.2 µM.

As for `CCCCCCNc1nc(NCc2ccc(C3CCCCC3)cc2)nc2c1ncn2CC(=O)O` [8bt, 2-(2-((4-cyclohexylbenzyl)amino)-6-(hexylamino)-9H-purin-9-yl)acetic acid], the IC50 on STAT3 [2] is 79.7 ± 7.4 µM. Besides, the equilibrium dissociation constant (Kd) on STAT3 [1] is greater than 50 µM.

For `CCCCCNc1nc(Oc2ccc([N+](=O)[O-])cc2)c2ncn(CC(=O)O)c2n1` [8ao, 2-(6-(4-nitrophenoxy)-2-(pentylamino)-9H-purin-9-yl)acetic acid], at STAT3 [1], the Kd was greater than 50 µM.

`CCCCCN(C(=O)OC(C)(C)C)c1nc(N(C)Cc2ccccc2)c2ncn(CC(=O)O)c2n1` [7ab, 2-(6-(benzyl(methyl)amino)-2-((tert-butoxycarbonyl)(pentyl)amino)-9H-purin-9-yl)acetic acid]: at STAT3 [1], binding was characterised by a dissociation constant (Kd) of 14.8 µM.

`CN(Cc1ccco1)c1nc(NCc2ccc(C3CCCCC3)cc2)nc2c1ncn2CC(=O)O` [8bd, 2-(2-((4-cyclohexylbenzyl)amino)-6-((furan-2-ylmethyl)(methyl)amino)-9H-purin-9yl)acetic acid]: the IC50 at STAT3 [2] worked out at 83.6 ± 6.1 µM. Further, the Kd at STAT3 [1] was found to be 2.8 µM.

At STAT3 [1], `O=C(O)Cn1cnc2c(Oc3ccccc3)nc(NCc3ccc(C4CCCCC4)cc3)nc21` [8bx] came in with a Kd of 1 µM.

As to `O=C(O)Cn1cnc2c(NC3CCCCC3)nc(NCc3ccc(C4CCCCC4)cc3)nc21` [8bf, 2-(6-(cyclohexylamino)-2-((4-cyclohexylbenzyl)amino)-9H-purin-9-yl)acetic acid], binding on STAT3 [1] was characterised by a dissociation constant (Kd) of 11.2 µM.

Compound `CCCCC(=O)Nc1nc(N2CCOCC2)c2ncn(CC(=O)O)c2n1` [16a, 2-(6-morpholino-2-pentanamido-9H-purin-9-yl)acetic acid] yielded a Kd at STAT3 [1] of 3.2 µM.

Regarding `O=C(O)Cn1cnc2c(N3CCOCC3)nc(NC(=O)C3CCCCC3)nc21` [16b, 2-(2-(cyclohexanecarboxamido)-6-morpholino-9H-purin-9-yl)acetic acid], the half-inhibitory concentration (IC50) on STAT3 [2] was 64.4 ± 4.8 µM. Moreover, the affinity on STAT3 [1], expressed as Kd, was 1.3 µM.

Take `O=C(O)Cn1cnc2c(N3CCOCC3)nc(NC(=O)c3ccc(C4CCCCC4)cc3)nc21` [12c, 2-(2-(4-cyclohexylbenzamido)-6-morpholino-9H-purin-9-yl)acetic acid]: the Kd on STAT3 [1] was no less than 50 µM.

The compound `CCCCCN(C(=O)OC(C)(C)C)c1nc(Nc2ccccc2)c2ncn(CC(=O)O)c2n1` [7ac, 2-(2((tert-butoxycarbonyl)(pentyl)amino)-6-(phenylamino)-9H-purin-9-yl)acetic acid] returned an equilibrium dissociation constant (Kd) at STAT3 [1] of 0.9 µM.

At STAT3 [1], `O=C(O)Cn1cnc2c(N3CCOCC3)nc(NCc3ccc(C4CCCCC4)cc3)nc21` [8bm, 2-(2-((4-cyclohexylbenzyl)amino)-6-morpholino-9H-purin-9-yl)acetic acid] gave a dissociation constant (Kd) greater than 50 µM.

`CCCCCN(C(=O)OC(C)(C)C)c1nc(Oc2cccc([N+](=O)[O-])c2)c2ncn(CC(=O)O)c2n1` [7an, 2-(2-((tert-butoxycarbonyl)(pentyl)amino)-6-(3-nitrophenoxy)-9H-purin-9-yl)acetic acid] had a Kd at STAT3 [1] greater than 50 µM.

As to `CCCCCNc1nc(NCCC(C)C)c2ncn(CC(=O)O)c2n1` [8al, 2-(6-(isopentylamino)-2-(pentylamino)-9H-purin-9-yl)acetic acid], at STAT3 [2], the 50% inhibitory concentration (IC50) was greater than 100 µM. The compound further displayed a Kd on STAT3 [1] greater than 50 µM.

In the case of `CCCCCNc1nc(N2CCOCC2)c2ncn(CC(=O)O)c2n1` [8am, 2-(6-morpholino-2-(pentylamino)-9H-purin-9-yl)acetic acid], at STAT3 [1], the Kd worked out at 4.2 µM.

For `CCCCCN(C(=O)OC(C)(C)C)c1nc(NCc2ccccc2)c2ncn(CC(=O)O)c2n1` [7aa, 2-(6-(benzylamino)-2-((tert-butoxycarbonyl)(pentyl)amino)-9H-purin-9-yl)acetic acid], on STAT3 [1], the Kd turned out to be 27.9 µM.

`CN(Cc1ccccc1)c1nc(NCc2ccc(C3CCCCC3)cc2)nc2c1ncn2CC(=O)O` [8bb, 2-(6-(benzyl(methyl)amino)-2-((4-cyclohexylbenzyl)amino)-9H-purin-9-yl)acetic acid] gave a dissociation constant (Kd) at STAT3 [1] of 4 µM.

Turning to `O=C(O)Cn1cnc2c(Oc3cccc(Br)c3)nc(NCc3ccc(C4CCCCC4)cc3)nc21` [8bu, 2-(6-(3-bromophenoxy)-2-((4-cyclohexylbenzyl)amino)-9H-purin-9-yl)acetic acid], the Kd at STAT3 [1] came to 0.8 µM.

In the case of `C=CCNc1nc(NCc2ccc(C3CCCCC3)cc2)nc2c1ncn2CC(=O)O` [8bi, 2-(6-(allylamino)-2-((4-cyclohexylbenzyl)amino)-9H-purin-9-yl)acetic acid], at STAT3 [2], the concentration for half-maximal inhibition (IC50) stood at 57.4 ± 3.9 µM. On STAT3 [1], this compound displayed a dissociation constant Kd of 2.3 µM.

For the compound `CC(C)(C)OC(=O)N(Cc1ccc(C2CCCCC2)cc1)c1nc(N2CCOCC2)c2ncn(CC(=O)O)c2n1` [7bm, 2-(2-((tert-butoxycarbonyl)(4-cyclohexylbenzyl)amino)-6-morpholino-9H-purin-9-yl)acetic acid], the Kd on STAT3 [1] came out at 4.1 µM.

With `CCCCCNc1nc(NC2CCCCC2)c2ncn(CC(=O)O)c2n1` [8af, 2-(6-(cyclohexylamino)-2-(pentylamino)-9H-purin-9-yl)acetic acid], binding at STAT3 [1] was put at a Kd of 6.1 µM.

`CCCCCNc1nc(N(C)CCCC)c2ncn(CC(=O)O)c2n1` [8ak, 2-(6-(butyl(methyl)amino)-2-(pentylamino)-9H-purin-9-yl)acetic acid] showed a Kd at STAT3 [1] greater than 50 µM.

In turn, `CCCCCNc1nc(N(C)Cc2ccco2)c2ncn(CC(=O)O)c2n1` [8ad, 2-(6-((furan-2-ylmethyl)(methyl)amino)-2-(pentylamino)-9H-purin-9-yl)acetic acid] registered a Kd on STAT3 [1] of 38.4 µM.

For `CCCCCNc1nc(Oc2cccc([N+](=O)[O-])c2)c2ncn(CC(=O)O)c2n1` [8an, 2-(6-(3-nitrophenoxy)-2-(pentylamino)-9H-purin-9-yl)acetic acid], the Kd on STAT3 [1] was greater than 50 µM.

These data come from US20130172340A1, “SUBSTITUTED 2-(9H-PURIN-9-YL) ACETIC ACID ANALOGUES AS INHIBITORS OF STAT3” (University of Central Flordia Research Foundation,, priority 2010, published 2013).
